Data set [1] in a line: Solubility experiment (HPLC, external standard). Conditions: 37 °C, 24 h; for solubility at 24 h: ph 7.4 medium, pH 7.4, pH 7.4 medium; for Solubility at pH 7.4 (µg/mL): pH 7.4 medium. In kind it is physicochemical. As for the experimental part: This experiment was intended to determine the solubility of the compounds in media at different pH values. The materials used in the experiment included: a pH 1.2 medium, a pH 4.5 medium, a pH 7.4 medium, and a diluent (acetonitrile/water = 50/50). 1. The preparation methods for media are as follows:
One centrifuge tube (containing about 2 mg of the test sample) was taken, 1 mL of DMSO was added to completely dissolve the test sample, and the mixture was marked as stock-1. 0.2 mL of stock-1 was transferred into a 10 mL volumetric flask, and then the 50:50 (acetonitrile/water) solution was added to bring the volume to the mark, so as to give a control solution.
Additionally, centrifuge tubes each containing about 1 mg of the test sample were taken, 1 mL of the corresponding medium solution was then added, and the tubes were shaken on a 37 °C water bath shaker for 24 h. After centrifugation for 3 times (centrifugation time: 10 min, rotation speed: 12000 rpm), 0.2 mL of the supernatants were taken, 0.8 mL of the diluent (acetonitrile/water = 50/50) was added to each tube, and the mixtures were vortexed and mixed well to give solubility samples.
The solubility samples described above and the control solution were sequentially analyzed by high performance liquid chromatography. The chromatographic conditions are as follows:
The actual concentration of the compound in each solubility sample was calculated according to an external standard method. Concentration (μg/mL) = (ASample × CControl × DSample)/(AControl)∗1000; [formula] Asample: the peak area of the target peak in the sample solution; Ccontrol: the concentration (mg/mL) of the control solution; Dsample: the dilution factor of the sample solution; Acontrol: the peak area of the target peak in the control solution.

The subject of the next data set is H441 p-ERK. Description: Cell p-ERK assay (HTRF), NCI-H441 cells. The settings on record: NCI-H441 cells (KRAS G12V), 3 h incubation. The class given is cell-based, human. The gist of the method:
(§1)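 Phospho-ERK (T202/Y204) was measured by HTRF in lysates after 3 h compound treatment at 37 °C. Cells had been plated the previous day at 20000 per well for NCI-H441 and 10000 per well for AsPC-1. Four-parameter dose-response fitting of % inhibition gave IC50 values.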

A further data set has as its system AsPC-1 p-ERK. Description: Cell p-ERK assay (HTRF), AsPC-1 cells. Conditions: AsPC-1 cells (KRAS G12D), 3 h incubation, read-out: AsPC-1 p-ERK IC50. In kind it is cell-based, human. The gist of the method: as §1
In the next data set the test system is NCI-H441 cells. Briefly: 3D cell proliferation assay (CellTiter Glo-3D), NCI-H441. In kind it is cell-based, human. The settings on record: NCI-H441 cells (KRAS G12V), 2% FBS, 5 days, read-out: H441 AP IC50. The gist of the method:
(§2)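 IC50 values come from four-parameter fits of inhibition rate against log compound concentration, using CellTiter-Glo luminescence read after 5 days' exposure. AsPC-1 and NCI-H441 were plated at 800 cells per well in low-serum (2% FBS) medium. Compound was dosed the day after seeding, with incubation at 37 °C, 5% CO2.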
(In general: ATP-based viability assays read luminescence as a measure of living cells.)

The next data set has as its system AsPC-1 cells. Description: 3D cell proliferation assay (CellTiter Glo-3D), AsPC-1. The class given is cell-based, human. Conditions: AsPC-1 cells (KRAS G12D), 3D, 2% FBS, 5 days, read-out: AsPC-1 AP IC50. Put shortly: as §2
The next data set has as its target KRAS WT-cRAF (Homo sapiens, UniProt P01116+P62937). Description: Assay for binding of KRAS to cRAF (HTRF, with Cyclophilin A), KRAS WT. (In general: In TR-FRET formats the signal depends on donor and acceptor labels being close together.)
The next data set addresses KRAS G12V-cRAF (Homo sapiens, UniProt P01116+P62937, G12V). Briefly: Assay for binding of KRAS to cRAF (HTRF, with Cyclophilin A), KRAS G12V.
Setting [2] is: KRAS WT-cRAF binding assay(nM), GPPNP-KRAS WT, IC50 values.
The mark [3] stands for this setting: KRAS G12V-cRAF binding assay(nM), GPPNP-KRAS G12V, IC50 values.

Each structure is given as a SMILES string. Values after ≈ are worked out from the molar mass of the structure shown. Read-outs that look alike come from different tables or passages of the source.

Usually solubility stands for the dissolved amount per volume that the medium holds. Low readings indicate little dissolved substance, high ones much dissolved substance. By IC50 is commonly meant the concentration that gives 50% inhibition. For orientation: Solubility means the dissolved amount per volume that the medium holds. Higher therefore signals much dissolved substance.

Chain of KRAS WT-cRAF (P01116 1-188 isoform P01116-2): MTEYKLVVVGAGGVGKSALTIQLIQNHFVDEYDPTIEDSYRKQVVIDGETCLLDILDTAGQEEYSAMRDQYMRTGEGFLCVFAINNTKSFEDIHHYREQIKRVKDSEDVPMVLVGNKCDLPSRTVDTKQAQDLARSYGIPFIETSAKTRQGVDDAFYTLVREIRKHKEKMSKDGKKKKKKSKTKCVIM
Chain of KRAS WT-cRAF (P62937 whole entry): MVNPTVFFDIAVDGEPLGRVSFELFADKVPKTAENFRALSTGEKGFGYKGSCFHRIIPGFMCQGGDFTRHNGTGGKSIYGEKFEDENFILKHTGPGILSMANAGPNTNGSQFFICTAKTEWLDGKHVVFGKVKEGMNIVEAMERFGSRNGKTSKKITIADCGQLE
Chain of KRAS G12V-cRAF (P01116 1-188 isoform P01116-2 G12V): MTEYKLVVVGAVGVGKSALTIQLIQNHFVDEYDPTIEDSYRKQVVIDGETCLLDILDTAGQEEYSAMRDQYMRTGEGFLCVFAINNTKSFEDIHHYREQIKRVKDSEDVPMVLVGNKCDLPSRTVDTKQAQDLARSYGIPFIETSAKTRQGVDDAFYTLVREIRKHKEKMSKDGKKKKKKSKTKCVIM
Chain of KRAS G12V-cRAF (P62937 whole entry): as the sequence (P62937 whole entry) above
Protocol for KRAS G12V-cRAF: (§3) The plate was centrifuged at 1000 rpm for 1 min and then incubated in the thermostatic incubator at 20 °C for 30 min. […] The plate was centrifuged at 1000 rpm for 1 min and then incubated in the thermostatic incubator at 20 °C for 60 min. […] The working solution was added to the aforementioned assay plate at 5 µL/well. The plate was centrifuged at 1000 rpm for 1 min and then incubated in the thermostatic incubator at 20 °C for 60 min.
Protocol for KRAS WT-cRAF: as §3

As for `COCCn1c(-c2cc(C#CCN3CCN(C(=O)CO)CC3)c[n+]([O-])c2[C@H](C)OC)c2c3cc(ccc31)-c1csc(n1)C[C@H](NC(=O)[C@H]1[C@@H]3COC[C@@H]31)C(=O)N1CCC[C@H](N1)C(=O)OCC(C)(C)C2` (atropisomer, axis not shown; (Sa)) [Compound Z38-2, (Sa)-3-((6^3S,4S,Z)-4-((1R,5S,6r)-3-oxabicyclo[3.1.0]hexane-6-carboxamido)-1^1-(2-methoxyethyl)-10,10-dimethyl-5,7-dioxo-6^1,6^2,6^3,6^4,6^5,6^6-hexahydro-11H-8-oxa-2(4,2)-thiazola-1(5,3)-indola-6(1,3)-pyridazinacycloundecaphane-1^2-yl)-5-(3-(4-(2-hydroxyacetyl)piperazin-1-yl)prop-1-yn-1-yl)-2-((S)-1-methoxyethyl)pyridine-1-oxide], the solubility at 24 h in data set [1] is 176 µg/mL (≈ 182 µM).

Turning to `CCn1c(-c2cc(C#CCN3CCC(C#N)(CN)CC3)c[n+]([O-])c2[C@H](C)OC)c2c3cc(ccc31)-c1csc(n1)C[C@H](NC(=O)[C@H]1[C@@H]3COC[C@@H]31)C(=O)N1CCC[C@H](N1)C(=O)OCC(C)(C)C2` (atropisomer, axis not shown; (Ra)) [Compound Z64-1, (Ra)-3-((6^3S,4S,Z)-4-((1R,5S,6r)-3-oxabicyclo[3.1.0]hexane-6-carboxamido)-1^1-ethyl-10,10-dimethyl-5,7-dioxo-6^1,6^2,6^3,6^4,6^5,6^6-hexahydro-1^1H-8-oxa-2(4,2)-thiazola-1(5,3)-indola-6(1,3)-pyridazinacycloundecaphane-1^2-yl)-5-(3-(4-(aminomethyl)-4-cyanopiperidin-1-yl)prop-1-yn-1-yl)-2-((S)-1-methoxyethyl)pyridine 1-oxide], the half-maximal inhibitory concentration (IC50) in the data set with H441 p-ERK is 5.07 nM; with AsPC-1 p-ERK it was 9.07 nM; in the data set on NCI-H441 cells, 5.1 nM; in the data set on AsPC-1 cells, 3.77 nM; on KRAS WT-cRAF (read-out: KRAS WT-cRAF binding assay, GPPNP-KRAS WT, IC50 values) it was 31.2 nM; at KRAS G12V-cRAF (read-out: KRAS G12V-cRAF binding assay, GPPNP-KRAS G12V, IC50 values), 4.1 nM.

For `CCn1c(-c2cc(C#CCN3CCS(=O)(=O)CC3)cnc2C(C)OC)c2c3cc(ccc31)-c1cc(N)cc(c1)CC(NC(=O)C1C(C)C1C)C(=O)N1CCCC(N1)C(=O)OCC(C)(C)C2` (atropisomer, axis not shown; (Ra)) [Compound Z22, (1r,2R,3S)-N-((6^3S,4S)-2^5-amino-(Ra)-1^2-(5-(3-(1,1-dioxidothiomorpholino)prop-1-yn-1-yl)-2-((S)-1-methoxyethyl)pyridin-3-yl)-1^1-ethyl-10,10-dimethyl-5,7-dioxo-6^1,6^2,6^3,6^4,6^5,6^6-hexahydro-1^1H-8-oxa-1(5,3)-indola-6(1,3)-pyridazina-2(1,3)-benzenacycloundecaphane-4-yl)-2,3-dimethylcyclopropane-1-carboxamide], the IC50 in the data set on H441 p-ERK (Homo sapiens) was 1.09 nM; with AsPC-1 p-ERK (Homo sapiens, ASPC1), 1.54 nM; in the data set on NCI-H441 cells (Homo sapiens, 120 h), 2.31 nM; in the data set on AsPC-1 cells (Homo sapiens, ASPC1, 120 h), 8.37 nM; at KRAS WT-cRAF (setting [2]) it was 47.5 nM; at KRAS G12V-cRAF (setting [3]), 18.6 nM.

`COCCn1c(-c2cc(C#CCN3CCN(C(=O)CO)CC3)cnc2[C@H](C)OC)c2c3cc(ccc31)-c1csc(n1)C[C@H](NC(=O)[C@H]1[C@@H]3COC[C@@H]31)C(=O)N1CCC[C@H](N1)C(=O)OCC(C)(C)C2` (atropisomer, axis not shown; (Sa)) [Compound Z31-2, (1R,5S,6r)-N-((6^3S,4S,Z)-(Sa)-1^2-(5-(3-(4-(2-hydroxyacetyl)piperazin-1-yl)prop-1-yn-1-yl)-2-((S)-1-methoxyethyl)pyridin-3-yl)-1^1-(methoxyethyl)-10,10-dimethyl-5,7-dioxo-6^1,6^2,6^3,6^4,6^5,6^6-hexahydro-1^1H-8-oxa-2(4,2)-thiazola-1(5,3)-indola-6(1,3)-pyridazinacycloundecaphane-4-yl)-3-oxabicyclo[3.1.0]hexane-6-carboxamide] returned a solubility at 24 h in data set [1] of 22 µg/mL (≈ 23.1 µM).

In the case of `CCn1c(-c2cc(C#CCN3CCS(=O)(=O)CC3)cnc2[C@H](C)NC)c2c3cc(ccc31)-c1csc(n1)C[C@H](NC(=O)[C@H]1[C@H](C)[C@@H]1C)C(=O)N1CCC[C@H](N1)C(=O)OCC(C)(C)C2` (atropisomer, axis not shown; (Sa)) [Compound Z66-1, (1r,2R,3S)-N-((6^3S,4S,Z)-(Sa)-1^2-(5-(3-(1,1-dioxidothiomorpholino)prop-1-yn-1-yl)-2-((S)-1-(methylamino)ethyl)pyridin-3-yl)-11-ethyl-10,10-dimethyl-5,7-dioxo-6^1,6^2,6^3,6^4,6^5,6^6-hexahydro-1^1H-8-oxa-2(4,2)-thiazola-1(5,3)-indola-6(1,3)-pyridazinacycloundecaphane-4-yl)-2,3-dimethylcyclopropane-1-carboxamide], in data set [1], the “Solubility at pH 7.4 (µg/mL)” value came out at 158.5 µg/mL.

As to `CCn1c(-c2cc(C#CCN3CCC(C#N)(CO)CC3)c[n+]([O-])c2[C@H](C)OC)c2c3cc(ccc31)-c1csc(n1)C[C@H](NC(=O)[C@H]1[C@H](C)[C@@H]1C)C(=O)N1CCC[C@H](N1)C(=O)OCC(C)(C)C2` (atropisomer, axis not shown; (Sa)) [Compound Z45-2, 5-(3-(4-cyano-4-(hydroxymethyl)piperidin-1-yl)prop-1-yn-1-yl)-(Sa)-3-((6^3S,4S,Z)-4-((1r,2R,3S)-2,3-dimethylcyclopropane-1-carboxamido)-1^1-ethyl-10,10-dimethyl-5,7-dioxo-6^1,6^2,6^3,6^4,6^5,6^6-hexahydro-1^1H-8-oxa-2(4,2)-thiazola-1(5,3)-indola-6(1,3)-pyridazinacycloundecaphane-1^2-yl)-2-((S)-1-methoxyethyl)pyridine 1-oxide], in data set [1] (1440 min), the “Solubility at pH 7.4 (µg/mL)” value stood at 8.42 µg/mL.

`COCCn1c(-c2cc(C#CCN3CCC(C#N)(CO)CC3)cnc2C(C)OC)c2c3cc(ccc31)-c1csc(n1)CC(NC(=O)C1C(C)C1C)C(=O)N1CCCC(N1)C(=O)OCC(C)(C)C2` [Compound Z29, (1r,2R,3S)-N-((6^3S,4S,Z)-1^2-(5-(3-(4-cyano-4-(hydroxymethyl)piperidin-1-yl)prop-1-yn-1-yl)-2-((S)-1-methoxyethyl)pyridin-3-yl)-1^1-(methoxyethyl)-10,10-dimethyl-5,7-dioxo-6^1,6^2,6^3,6^4,6^5,6^6-hexahydro-1^1H-8-oxa-2(4,2)-thiazola-1(5,3)-indola-6(1,3)-pyridazinacycloundecaphane-4-yl)-2,3-dimethylcyclopropane-1-carboxamide]: the IC50 worked out at 0.38 nM with H441 p-ERK (Homo sapiens); 0.07 nM in the data set on AsPC-1 p-ERK (Homo sapiens, ASPC1); 0.21 nM in the data set with NCI-H441 cells (Homo sapiens, 120 h); 0.09 nM in the data set with AsPC-1 cells (Homo sapiens, ASPC1, 120 h); 37 nM at KRAS WT-cRAF (setting [2]); 18.5 nM on KRAS G12V-cRAF (setting [3]).

Source of the values: EP4775582A1, “MACROCYCLIC COMPOUND AND ANTIBODY-DRUG CONJUGATE THEREOF” (Genfleet Therapeutics (Shanghai) Inc., priority 2023, dated 2025).
